# Source: ChEMBL document CHEMBL3217678 (Medchemcomm, 2011)
# The source made the active and inactive calls. The rule behind the calls is not given here.
# How the values were obtained:
# [1] = Half life in 100 fold molar excess of deuterated water in DMSO at 37 degC by [1H]-NMR analysis; assay type: physicochemical
# [2] = biological target: 26S proteasome; experiment: Inhibition of human 20S proteasome using Suc-LLVY-AMC as substrate preincubated for 30 mins followed by substrate addition measured after 90 mins by fluorescence assay; assay type: protein-complex assay
# [3] = biological target: T1, 26S proteasome (Homo sapiens) (UniProt Q99460+P49721+P20618+P28074+P28062+P28065+P28072+O00487+P25786+P25787+P25788+P25789+P28066+P60900+O14818+Q8TAA3+P40306+A5LHX3+P49720+P28070+Q99436+Q16186+P35998+P62191+P43686+P62333+P17980+P62195+Q13200+O43242+O00232+O00231+Q15008+P51665+Q9UNM6+P55036+P48556+P60896); experiment: Inhibition of human 20S proteasome using Suc-LLVY-AMC as substrate assessed as decrease in enzyme velocity; assay type: protein-complex assay
# [4] = biological target: T1, 26S proteasome (Homo sapiens); experiment: Inhibition of 20S proteasome in human HeLa cells expressing GFP-tagged ubiquitin G76V mutant at 23 uM after 16 hrs by fluorescence assay; assay type: cell-based
# [5] = biological target: T1, 26S proteasome (Homo sapiens); details: HeLa, 26 nM
# Description: Inhibition of 20S proteasome in human HeLa cells expressing GFP-tagged ubiquitin G76V mutant at 26 nM after 16 hrs by fluorescence assay
Compound,half-life [1] [h],IC50 [2] [µM],inhibition [3],inhibition [4],inhibition [5]
COc1cccc(-c2nsc(=O)o2)c1,20,,,,
CC(C)C[C@@H](NC(=O)[C@H](Cc1ccccc1)NC(=O)c1cnccn1)c1nsc(=O)o1,,225,Dose-dependent effect,inactive,
CC(C)C[C@H](NC(=O)[C@H](Cc1ccccc1)NC(=O)c1cnccn1)c1nsc(=O)o1,156,108,Dose-dependent effect,Active,
CC(C)C[C@H](NC(=O)[C@H](Cc1ccccc1)NC(=O)c1cnccn1)B(O)O [BORTEZOMIB],,,,,Active
